Patent US20080096929A1, “Novel Use” (ASTRAZENECA AB, priority 2004, published 2008)
pIC50: −log10 of the molar value.

Biological target: T1, human MPO (Homo sapiens, UniProt P05164)
T1 sequence (P05164 49-745): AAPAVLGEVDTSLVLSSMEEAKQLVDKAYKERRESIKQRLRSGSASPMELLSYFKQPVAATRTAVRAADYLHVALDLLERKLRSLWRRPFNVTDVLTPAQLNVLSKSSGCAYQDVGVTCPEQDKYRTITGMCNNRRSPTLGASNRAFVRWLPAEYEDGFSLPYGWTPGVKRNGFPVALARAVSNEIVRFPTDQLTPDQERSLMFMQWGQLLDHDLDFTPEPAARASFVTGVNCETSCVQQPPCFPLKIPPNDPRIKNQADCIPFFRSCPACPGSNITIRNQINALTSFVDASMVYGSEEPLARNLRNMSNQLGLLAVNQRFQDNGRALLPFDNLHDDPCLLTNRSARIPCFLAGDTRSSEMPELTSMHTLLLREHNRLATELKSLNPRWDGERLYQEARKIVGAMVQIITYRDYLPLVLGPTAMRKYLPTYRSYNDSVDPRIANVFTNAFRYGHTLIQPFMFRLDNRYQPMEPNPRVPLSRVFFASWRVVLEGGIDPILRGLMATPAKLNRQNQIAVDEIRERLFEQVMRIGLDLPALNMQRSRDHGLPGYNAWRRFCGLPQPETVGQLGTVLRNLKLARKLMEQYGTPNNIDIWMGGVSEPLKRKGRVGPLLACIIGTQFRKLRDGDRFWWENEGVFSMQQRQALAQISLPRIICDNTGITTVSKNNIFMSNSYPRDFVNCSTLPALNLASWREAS
Assay: MPO inhibition screen (TMB oxidation, absorbance)
Format: biochemical
Details: in the presence of tyrosine (final 8 μM); human MPO 2.5 nM; H2O2 100 μM
Procedure: Methods for the determination of MPO inhibitory activity are disclosed in patent application WO 02/090575. The pharmacological activity of compounds according to the invention was tested in the following screen in which the compounds were either tested alone or in the presence of added tyrosine:
Assay buffer: 20 mM sodium/potassium phosphate buffer pH 6.5 containing 10 mM taurine and 100 mM NaCl.
Developing reagent: 2 mM 3,3′,5,5′-tetramethylbenzidine (TMB), 200 μM KI, 200 mM acetate buffer pH 5.4 with 20% DMF.
To 10 μl of diluted compounds in assay buffer, 40 μl of human MPO (final concentration 2.5 nM), with or without 20 μM tyrosine (final concentration, if present, 8 μM), was added and the mixture was incubated for 10 minutes at ambient temperature. Then 50 μl of H2O2 (final concentration 100 μM), or assay buffer alone as a control, were added. After incubation for 10 minutes at ambient temperature, the reaction was stopped by adding 10 μl 0.2 mg/ml of catalase (final concentration 18 μg/ml). The reaction mixture was left for an additional 5 minutes before 100 μl of TMB developing reagent was added. The amount of oxidised 3,3′,5,5′-tetramethylbenzidine formed was then measured after about 5 minutes using absorbance spectroscopy at about […]. IC50 values were then determined using standard procedures.

| SMILES | pIC50 |
| --- | --- |
| O[C@@H]1CCCC[C@H]1n1c(COc2ccccc2Cl)n[nH]c1=S (relative stereo) [Example 2, 5-(2-Chloro-phenoxymethyl)-4-(trans-2-hydroxycyclohexyl)-2,4-dihydro-[1,2,4]triazole-3-thione] | 5.44 |
| S=c1[nH]nc(Cc2ccccn2)n1C1CC2C=CC1C2 (stereo not drawn) [Example 4, 4-(Bicyclo[2.2.1]hept-5-en-2-yl)-5-pyridin-2-ylmethyl-2,4-dihydro-[1,2,4]triazole-3-thione] | 5.17 |
| S=c1[nH]nc(Cc2ccccn2)n1C1CCN(Cc2ccccc2)C1 (stereo not drawn) [Example 5, 4-(1-Benzyl-pyrrolidin-3-yl)-5-pyridin-2-ylmethyl-2,4-dihydro-[1,2,4]triazole-3-thione] | 5.14 |
